In patent US20110172296A1, “MODULATION OF TRANSFORMING GROWTH FACTOR-BETA 1 EXPRESSION” (priority 2010, published 2011):
Several values for one entry are separate records, joined by “and”; a condition that tells them apart may be missing. Equal values may be shown once. In the oligonucleotide strings, read from the 5' end, every base follows the letter of its sugar. An asterisk marks phosphorothioate; unmarked linkages are phosphodiester. Other units and linkages are bracketed, terminal groups are in braces. A string of capitals states the bases alone. e = 2'-O-(2-methoxyethyl) (MOE); [5mC] = 5-methylcytosine; d = 2'-deoxy (DNA)

Test system: human TGF-beta1 mRNA
Experiment: Antisense inhibition of human TGF-beta1 mRNA in HuVEC cells, single 10 nM dose, Lipofectamine 2000 (Example 2)
Assay type: cell-based
Conditions: for % inhibition: 10 nM oligonucleotide, HuVEC, relative to untreated control cells; for inhibition of a TGF-beta1 mRNA: threshold lists of Oligo IDs, 10 nM
Description: Antisense oligonucleotides targeted to a TGF-beta1 nucleic acid were tested for their effects on TGF-beta1 mRNA in vitro. Cultured HuVEC cells at a density of 5,000 cells per well were transfected using Lipofectamine™ 2000 reagent with 10 nM antisense oligonucleotide for 4 hours. After a recovery period of approximately 24 hours, RNA was isolated from the cells and TGF-beta1 mRNA levels were measured by quantitative real-time PCR. TGF-beta1 mRNA levels were adjusted according to total RNA content, as measured by RIBOGREEN®. Results are presented as percent inhibition of TGF-beta1, relative to untreated control cells.
The chimeric antisense oligonucleotides in Tables 1 and 2 were designed as 2-13-5 MOE gapmers. Antisense molecules with this motif targeting TGF-beta1 are unique, and represent a novel chemical structure for an ASO directed against this target. The gapmers are 20 nucleotides in length, wherein the central gap segments are comprised of thirteen 2′-deoxynucleotides and are flanked on the 5′ side by wings comprising two nucleotides each and on the 3′ side by wings comprising five nucleotides each. Each nucleotide in the 5′ wing segment and each nucleotide in the 3′ wing segment has a 2′-MOE modification. The internucleoside linkages throughout each gapmer are phosphorothioate (P═S) linkages. All cytosine residues throughout each gapmer are 5-methylcytosines. “Target start site” indicates the 5′-most nucleotide to which the gapmer is targeted. “Target stop site” indicates the 3′-most nucleotide to which the gapmer is targeted. Each gapmer listed in Table 1 is targeted to SEQ ID NO: 1 (GENBANK Accession No. NM_000660.3). Each gapmer listed in Table 2 is targeted to SEQ ID NO: 2 (GENBANK Accession No. NT 011109.15 truncated from 14103000 to […]).

[1] = gapmers targeted to SEQ ID NO: 2
[2] = gapmers targeted to SEQ ID NO: 1

| Substance | % inhibition [1] [%] | inhibition of a TGF-beta1 mRNA | % inhibition [2] [%] |
| --- | --- | --- | --- |
| 414064 (antisense eT*eG*dT*dG*dA*d[5mC]*d[5mC]*dT*dT*dG*dA*dG*dG*dA*dA*eG*eT*eG*eG*eT) [compound 414064] | 61 | 60% |  |
| 414034 (antisense e[5mC]*e[5mC]*dT*dT*dA*dA*dA*dT*dA*d[5mC]*dA*dG*d[5mC]*d[5mC]*d[5mC]*e[5mC]*e[5mC]*eA*eT*eG) [compound 414034] |  | 60% and 65% | 68 |
| 413971 (antisense eG*eG*d[5mC]*d[5mC]*dT*d[5mC]*dA*dG*dG*d[5mC]*dT*dG*d[5mC]*dT*d[5mC]*e[5mC]*eT*e[5mC]*eG*eG) [compound 413971] |  | 60% and 65% and 70% and 75% | 78 |
| 414086 (antisense eT*eT*dG*dA*dA*dT*dT*d[5mC]*d[5mC]*dA*dA*d[5mC]*dA*dA*dT*e[5mC]*eA*e[5mC]*eA*eG) [compound 414086] | 54 |  |  |
| 413977 (antisense e[5mC]*e[5mC]*d[5mC]*dA*dG*d[5mC]*dG*dG*d[5mC]*dA*dA*d[5mC]*dG*dG*dA*eA*eA*eA*eG*eT) [compound 413977] |  |  | 57 |
| 414068 (antisense eT*e[5mC]*dT*dG*d[5mC]*dA*dA*d[5mC]*dA*dT*d[5mC]*d[5mC]*dA*dA*dA*eA*eT*eA*eG*eT) [compound 414068] | 53 |  |  |
| 414029 (antisense eG*eA*dG*d[5mC]*dT*d[5mC]*dT*dG*dA*dT*dG*dT*dG*dT*dT*eG*eA*eA*eG*eA) [compound 414029] |  | 60% and 65% and 70% | 73 |
| 414084 (antisense eT*e[5mC]*dA*dG*d[5mC]*d[5mC]*d[5mC]*dA*dA*dG*d[5mC]*dA*d[5mC]*dA*dG*e[5mC]*eA*eG*e[5mC]*eA) [compound 414084] | 75 | 60% and 65% and 70% and 75% |  |
| 414083 (antisense eA*eA*d[5mC]*d[5mC]*dT*dG*dG*dA*dG*d[5mC]*dA*d[5mC]*d[5mC]*dT*dG*eG*eT*e[5mC]*eA*eG) [compound 414083] | 42 |  |  |
| 414021 (antisense eT*eG*dT*dA*d[5mC]*dA*dG*dG*dG*d[5mC]*dG*dA*dG*d[5mC]*dA*e[5mC]*eG*eG*e[5mC]*e[5mC]) [compound 414021] | 74 | 60% and 65% and 70% |  |
| 414042 (antisense e[5mC]*eG*d[5mC]*d[5mC]*d[5mC]*dA*dA*dT*dG*dA*d[5mC]*dA*d[5mC]*dA*dG*eA*eG*eA*eT*e[5mC]) [compound 414042] |  | 60% and 65% | 68 |
| 413987 (antisense eA*eG*dG*dT*d[5mC]*d[5mC]*d[5mC]*d[5mC]*dG*d[5mC]*dG*d[5mC]*d[5mC]*dT*d[5mC]*e[5mC]*eG*eG*e[5mC]*eT) [compound 413987] |  | 60% and 65% and 70% | 71 |
| 414110 (antisense eG*eA*dA*d[5mC]*dA*dA*dA*dT*dT*dT*dT*d[5mC]*d[5mC]*dT*dA*eT*eG*eA*eA*eA) [compound 414110] | 14 |  |  |
| 414055 (antisense eA*eT*dT*dA*dG*dT*dT*dT*dT*d[5mC]*d[5mC]*dA*d[5mC]*d[5mC]*d[5mC]*eT*eT*eA*eA*e[5mC]) [compound 414055] | 53 |  |  |
| 414122 (antisense eT*e[5mC]*dA*d[5mC]*dT*dA*dA*d[5mC]*dA*d[5mC]*dA*dG*dA*dT*dT*eA*eA*eG*e[5mC]*eA) [compound 414122] | 34 |  |  |
| 414105 (antisense eG*eA*dT*dA*dT*d[5mC]*dT*dA*dG*dA*dG*dG*dA*dA*dT*eA*eT*e[5mC]*eT*eA) [compound 414105] | 27 |  |  |
| 413983 (antisense eG*e[5mC]*dG*d[5mC]*d[5mC]*dT*d[5mC]*d[5mC]*dG*dG*d[5mC]*dT*d[5mC]*d[5mC]*d[5mC]*eA*eG*e[5mC]*eG*eG) [compound 413983] |  | 60% and 65% and 70% and 75% | 78 |
